The values below come from ChEMBL document CHEMBL3860072, “Synthesis of a selective HDAC6 inhibitor active in neuroblasts” (Bioorg Med Chem Lett, 2016).

The nature of series [1]: Effective passive permeability of the compound assessed as membrane retention at 100 uM at pH 7.4 after 18 hrs by UHPLC-UV based PAMPA-BBB assay. It is filed as ADME. Conditions: pH 7.4, 18 h.
Series [2] in a line: Effective passive permeability of the compound at 100 uM at pH 7.4 after 18 hrs by UHPLC-UV based PAMPA-BBB assay. Conditions: read-out: Peff. Format: ADME.
Series [3] in a line: Inhibition of HDAC in human SHSY5Y cells using MAL as substrate after 8 hrs by UHPLC-ESI-MS/MS analysis. Format: cell-based. Particulars: SH-SY5Y.
Series [4] concerns the target Histone deacetylase 1/2/3 (Homo sapiens, UniProt Q13547+O15379+Q92769). Format: protein assay.
Series [5] concerns the target T1, Histone deacetylase 1 (Homo sapiens, UniProt Q13547).
Series [6] has as its target T1, Histone deacetylase 1. As to the kind of experiment: biochemical.
Series [7] addresses T2, Protein deacetylase HDAC6 (Homo sapiens, UniProt Q9UBN7).
T2 sequence (Q9UBN7 whole entry): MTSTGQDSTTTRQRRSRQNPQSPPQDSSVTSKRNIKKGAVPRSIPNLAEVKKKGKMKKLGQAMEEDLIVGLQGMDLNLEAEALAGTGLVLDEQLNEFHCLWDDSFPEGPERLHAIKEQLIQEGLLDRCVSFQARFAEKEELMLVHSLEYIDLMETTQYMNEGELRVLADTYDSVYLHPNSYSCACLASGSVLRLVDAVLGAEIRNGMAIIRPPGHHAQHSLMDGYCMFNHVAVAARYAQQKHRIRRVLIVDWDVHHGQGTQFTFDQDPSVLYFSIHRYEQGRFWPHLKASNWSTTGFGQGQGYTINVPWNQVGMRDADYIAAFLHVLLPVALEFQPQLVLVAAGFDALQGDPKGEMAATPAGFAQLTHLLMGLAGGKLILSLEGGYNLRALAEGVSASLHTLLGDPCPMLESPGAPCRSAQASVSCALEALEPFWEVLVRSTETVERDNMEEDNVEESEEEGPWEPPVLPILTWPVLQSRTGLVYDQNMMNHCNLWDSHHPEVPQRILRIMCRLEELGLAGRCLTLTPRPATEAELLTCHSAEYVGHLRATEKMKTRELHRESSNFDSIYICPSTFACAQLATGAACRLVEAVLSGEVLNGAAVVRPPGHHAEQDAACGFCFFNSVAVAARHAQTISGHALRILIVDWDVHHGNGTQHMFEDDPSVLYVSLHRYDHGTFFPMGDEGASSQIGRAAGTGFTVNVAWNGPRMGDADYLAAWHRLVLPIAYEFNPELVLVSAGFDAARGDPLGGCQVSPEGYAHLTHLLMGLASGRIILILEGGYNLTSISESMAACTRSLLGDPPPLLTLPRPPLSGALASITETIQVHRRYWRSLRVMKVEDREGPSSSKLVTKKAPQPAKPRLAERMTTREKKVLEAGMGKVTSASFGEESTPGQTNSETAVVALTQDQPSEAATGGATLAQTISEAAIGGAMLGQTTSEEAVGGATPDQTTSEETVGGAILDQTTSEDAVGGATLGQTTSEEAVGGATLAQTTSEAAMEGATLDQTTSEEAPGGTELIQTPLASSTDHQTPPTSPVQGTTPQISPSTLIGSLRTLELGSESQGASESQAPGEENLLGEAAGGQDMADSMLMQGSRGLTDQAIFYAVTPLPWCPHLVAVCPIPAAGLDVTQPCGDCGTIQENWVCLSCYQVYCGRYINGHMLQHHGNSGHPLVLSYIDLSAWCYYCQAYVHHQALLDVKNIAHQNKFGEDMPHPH
The series can be described thus: Inhibition of human recombinant HDAC6 expressed in baculovirus infected insect cells using BATCP as substrate after 4 hrs by UHPLC-ESI-MS/MS analysis.

Series [8] deals with T2, Protein deacetylase HDAC6. As to the kind of experiment: Inhibition of HDAC6 in human SHSY5Y cells using BATCP as substrate after 8 hrs by UHPLC-ESI-MS/MS analysis. It is filed as cell-based, SH-SY5Y.

Some results are limits rather than exact numbers.

T1 sequence (Q13547 whole entry): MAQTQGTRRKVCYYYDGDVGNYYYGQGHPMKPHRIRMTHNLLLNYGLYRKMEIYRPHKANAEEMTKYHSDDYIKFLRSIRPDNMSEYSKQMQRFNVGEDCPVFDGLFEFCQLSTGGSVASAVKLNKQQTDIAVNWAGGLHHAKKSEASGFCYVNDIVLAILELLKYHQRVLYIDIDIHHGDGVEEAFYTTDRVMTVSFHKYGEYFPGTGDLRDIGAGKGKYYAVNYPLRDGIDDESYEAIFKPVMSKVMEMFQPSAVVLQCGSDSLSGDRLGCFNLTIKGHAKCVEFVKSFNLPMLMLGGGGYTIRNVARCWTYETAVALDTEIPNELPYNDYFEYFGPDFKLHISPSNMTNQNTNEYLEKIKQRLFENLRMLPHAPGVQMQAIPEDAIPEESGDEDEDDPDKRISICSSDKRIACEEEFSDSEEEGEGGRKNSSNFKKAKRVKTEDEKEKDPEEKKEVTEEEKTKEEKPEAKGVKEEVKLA

Consider `CC(C)(C)OC(=O)ON(C(=O)CCCCCCC(=O)N(OC(=O)OC(C)(C)C)C(=O)OC(C)(C)C)C(=O)OC(C)(C)C`, for which the R% in series [1] is less than 1%. For the same compound, the Papp at 18 h, 100 µM in series [2] is less than 2 ×10⁻⁶ cm/s.
The term IC50 denotes the concentration that gives 50% inhibition. For `O=C(CCCCCc1ccc2c(c1)OCO2)NO`, the half-maximal inhibitory concentration (IC50) is 310 nM in series [3]; 188.1 nM in series [4]; 973 nM against Histone deacetylase 1 [5]; 560 nM at Histone deacetylase 1 [6]; 36.7 nM in series [7]; 164 nM in series [8]. Besides, the R% in series [1] was determined as 6.8%. For the same compound, the Papp at 18 h, 100 µM in series [2] came to 8.7 ×10⁻⁶ cm/s.
`O=C(CCCCCCC(=O)NO)NO` [SUBEROHYDROXAMIC ACID]: the R% in series [1] is on record as less than 1%. Also, the Papp at 18 h, 100 µM in series [2] is less than 2 ×10⁻⁶ cm/s.
`CC(/C=C/C(=O)NO)=C\[C@@H](C)C(=O)c1ccc(N(C)C)cc1` [TRICHOSTATIN]: the IC50 in series [3] stood at 9.1 nM.
For `CN1CCc2c(c3ccccc3n2Cc2ccc(C(=O)NO)cc2)C1` [TUBASTATIN A], the IC50 in series [3] came out at 122 nM. Further, the R% in series [1] was 70.8%. For the same compound, the Papp at 18 h, 100 µM in series [2] was found to be 6.8 ×10⁻⁶ cm/s.
